In PubChem BioAssay (NCI) one finds GI50 and TGI data, which are given here for 15 compounds.

SMILES strings stand for the structures.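 Protocol summary: plate cells (96-well), add compound at 5 concentrations, incubate 48 h, interpolate endpoints linearly. GI50 is the concentration that inhibits growth by half. TGI denotes the concentration required for complete inhibition of growth.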

Test systems include SNB-19 CNS; TK-10 renal; UACC-257 melanoma; NCI-H522 lung; EKVX NSCLC; K-562 leukemia; SK-MEL-2 melanoma; MDA-MB-231 breast; MDA-N.
Holding throughout (experiment): growth of human tumour cells (NCI), 48 h

For the compound `COc1ccc2c(c1)N(Cc1ccc(Cl)cc1)CCC2N1CCCC1=O` (centres undefined), the GI50 in the assay with SNB-19 CNS was 4.3 µM; in the assay on TK-10 renal, 6.98 µM; in the assay on UACC-257 melanoma, 3.07 µM; with NCI-H522 lung, 4.33 µM; with EKVX NSCLC it was 3.39 µM; in the assay with K-562 leukemia, 4.6 µM. In addition, the values for the GI50 in the assay with SK-MEL-2 melanoma and in the assay on MDA-MB-231 breast were 6 µM and 4.84 µM, respectively. Moreover, the TGI with SNB-19 CNS was 51.7 µM; in the assay with TK-10 renal, 60.9 µM; with UACC-257 melanoma, 11.2 µM; in the assay on NCI-H522 lung, 35.8 µM; with EKVX NSCLC it was 19.1 µM; with K-562 leukemia, > 100 µM. Moreover, the results for the TGI in the assay on SK-MEL-2 melanoma and in the assay with MDA-MB-231 breast were 28.8 µM and 98.5 µM, respectively.
As to `O=C1c2ccccc2C(=O)N1n1c(Cc2ccc(Cl)cc2)n[nH]c1=O`, the TGI in the assay with SNB-19 CNS, in the assay on TK-10 renal, in the assay with MDA-N, with UACC-257 melanoma, in the assay with EKVX NSCLC and with K-562 leukemia was > 100 µM throughout. The TGI in the assay with SK-MEL-2 melanoma and in the assay on MDA-MB-231 breast was > 100 µM throughout.
Consider `Clc1cc(-c2ccccc2)nc(Nc2nc3ccccc3[nH]2)n1`, for which the TGI in the assay on SNB-19 CNS was > 100 µM; in the assay on TK-10 renal, > 100 µM; with MDA-N it was 38.7 µM; in the assay on UACC-257 melanoma, 44 µM; with NCI-H522 lung, 33.1 µM; in the assay with EKVX NSCLC it was 49.5 µM. In addition, the figures for the TGI with K-562 leukemia and in the assay with MDA-MB-231 breast were 85.3 µM and 33.9 µM, respectively.
On to `Cc1c(Cc2ccccc2)n(C(C)OCCN(OC(=O)Oc2ccccc2)C(=O)Oc2ccccc2)c(=O)[nH]c1=O` (centres undefined), for which the TGI in the assay with SNB-19 CNS is > 100 µM; with MDA-N it was 41.4 µM; in the assay on UACC-257 melanoma, 30.2 µM; in the assay on NCI-H522 lung, 29.3 µM; with EKVX NSCLC, 30.4 µM; in the assay on K-562 leukemia, 93.5 µM. Moreover, the results for the TGI in the assay on SK-MEL-2 melanoma and in the assay with MDA-MB-231 breast were 37.2 µM and 38.5 µM, respectively.
Consider `Nc1nc(Cl)cc(OCC2(CO)CCCC2)n1`, for which the TGI with SNB-19 CNS, in the assay on TK-10 renal, with MDA-N, in the assay with UACC-257 melanoma, in the assay with NCI-H522 lung and with EKVX NSCLC was > 100 µM throughout. In addition, the TGI in the assay on K-562 leukemia was > 100 µM.
With `CCOC(=O)c1c(NS(=O)(=O)c2ccc(C)cc2)sc2c1CCCC2`, the TGI was > 100 µM with SNB-19 CNS; > 100 µM in the assay with TK-10 renal; > 100 µM in the assay on MDA-N; > 100 µM with UACC-257 melanoma; 98.7 µM with EKVX NSCLC; > 100 µM with K-562 leukemia. Besides, the TGI in the assay with SK-MEL-2 melanoma was determined as 54.8 µM; in the assay on MDA-MB-231 breast it was 72.8 µM.
`CC(C)(C)NC1=NC(C(F)(F)F)(C(F)(F)F)NC(=O)N1`: the TGI with SNB-19 CNS, with TK-10 renal, in the assay with MDA-N, in the assay with UACC-257 melanoma, in the assay with EKVX NSCLC and in the assay on K-562 leukemia was > 100 µM throughout. In addition, the TGI in the assay with SK-MEL-2 melanoma and with MDA-MB-231 breast was > 100 µM throughout.
`CSc1cc(Cl)c(C)cc1S(=O)(=O)NC(=O)NNc1ccc(F)cc1`: the TGI in the assay with SNB-19 CNS, with MDA-N, in the assay on NCI-H522 lung, with EKVX NSCLC, in the assay on K-562 leukemia and in the assay with SK-MEL-2 melanoma was > 100 µM each time. Moreover, the TGI in the assay on MDA-MB-231 breast was > 100 µM.
Take `O=C(CN1CCCC1=O)CS(=O)(=O)c1ccccc1`: the TGI with SNB-19 CNS, in the assay with TK-10 renal, in the assay on MDA-N, in the assay on UACC-257 melanoma, in the assay with NCI-H522 lung and with EKVX NSCLC was > 100 µM in each case. The TGI in the assay on K-562 leukemia and in the assay on SK-MEL-2 melanoma was > 100 µM in each case.
As to `CC(=O)O[C@H]1C(=O)[C@@]2(C)[C@H]([C@H](OC(=O)c3ccccc3)[C@]3(O)C[C@H](OC(=O)[C@H](O)[C@@H](NC(=O)c4ccccc4)c4ccc5ccccc5c4)C(C)=C1C3(C)C)[C@]1(OC(C)=O)CO[C@@H]1C[C@@H]2O`, the TGI is > 31.8 µM in the assay on SNB-19 CNS; 18.6 µM with TK-10 renal; 0.0202 µM in the assay with MDA-N; 8.22 µM with UACC-257 melanoma; > 50 µM in the assay with EKVX NSCLC; 2.05 µM with K-562 leukemia. Moreover, the figures for the TGI in the assay on SK-MEL-2 melanoma and in the assay on MDA-MB-231 breast were 0.173 µM and 1.8 µM, respectively.
Take `Cc1ccc(S(=O)(=O)N2CCC[C@@H]2C(=O)O[C@@H]2CCC3CC=CC32)cc1` (some centres undefined): the TGI in the assay with SNB-19 CNS was > 100 µM; with TK-10 renal, > 100 µM; in the assay on MDA-N it was 78.6 µM; in the assay with UACC-257 melanoma, 64.4 µM; in the assay on NCI-H522 lung it was 50.8 µM; with EKVX NSCLC, > 100 µM. Also, the TGI in the assay with K-562 leukemia and with MDA-MB-231 breast was > 100 µM in each case.
Turning to `O=C1c2cc(I)ccc2N2CCN=C2N1Cc1ccccc1`, the TGI with SNB-19 CNS, with TK-10 renal, in the assay on UACC-257 melanoma, with NCI-H522 lung, in the assay on EKVX NSCLC and in the assay on K-562 leukemia was > 100 µM in each case. Further, the TGI in the assay with SK-MEL-2 melanoma and in the assay on MDA-MB-231 breast was > 100 µM each time.
With `O=C1/C(=C/c2ccc(Cl)cc2)Oc2cc(O)ccc21`, the TGI with SNB-19 CNS was 87.4 µM; in the assay with TK-10 renal, 96.8 µM; in the assay on MDA-N, > 100 µM; with UACC-257 melanoma, 90.1 µM; with NCI-H522 lung it was 70.7 µM; in the assay with EKVX NSCLC, 94.3 µM. Besides, the TGI is 38.5 µM in the assay on K-562 leukemia and > 100 µM in the assay on MDA-MB-231 breast.
Consider `CN1CCN(C(=O)CCC(=O)Nc2cc3c(c4ccccc24)-c2ccc4ccccc4c2C3)CC1`, for which the TGI turned out to be 3.93 µM with SNB-19 CNS; 3.27 µM in the assay on TK-10 renal; 3.24 µM in the assay on UACC-257 melanoma; 3.2 µM with NCI-H522 lung; 3.13 µM in the assay with EKVX NSCLC; 3.65 µM in the assay with SK-MEL-2 melanoma. In addition, the TGI in the assay with MDA-MB-231 breast stood at 2.93 µM.
`O=c1cc(-c2ccccc2)[nH]c2ncccc12`: the TGI in the assay with SNB-19 CNS is > 100 µM; with TK-10 renal, > 100 µM; with UACC-257 melanoma it was > 100 µM; with NCI-H522 lung it was 0.702 µM; in the assay with EKVX NSCLC it was > 100 µM; in the assay with K-562 leukemia, > 100 µM. The TGI in the assay on MDA-MB-231 breast was > 26.7 µM.
